Data from US20230218563A1, “METHODS FOR TREATING OR PREVENTING CHRONIC KIDNEY DISEASE” (Arthrosi Therapeutics, Inc., priority 2020, published 2023).
“And” between values parts separate entries of the source, which are not always exact repeats. Equal entries are not always repeated. Where two headings read alike, the source gives them in different places.

Legend:
[1] = test system: urine albumin-to-creatinine ratio (UACR); assay: Renal function safety pharmacology study in rats, single oral dose (urine albumin, creatinine, UACR); type: in vivo, Sprague Dawley Rats
Description: Cageside and detailed clinical observations, body weights, water consumption, blood clinical chemistry, urine chemistry, and urinalysis were performed. Osmolality, osmolality gap, urine volume, water intake rate, fluid balance, urinary excretion, renal creatinine clearance, renal clearance, free water clearance, and fractional electrolyte clearance were calculated and evaluated. All animals were euthanized on Day 2 after scheduled observations. Blood samples for clinical chemistry analysis were collected from all the animals at 24 hours post dose prior to each scheduled euthanasia. Urine samples for clinical chemistry and urinalysis were collected from all the animals at pre-dose (˜24 hours) and 0-6 hours and 6-24 hours post-dose.

[2] = 4-week toxicity study in Sprague-Dawley rats; type: in vivo
Source text: On Day 29, surviving TS animals (all animals in study) were euthanized and subjected to a full gross necropsy, which included a macroscopic examination of the external surface of the body, all orifices, cranial cavity, external surface of the brain, the thoracic, abdominal and pelvic cavities and their viscera, cervical areas, carcass and genitalia. Organs were weighed as soon as possible from all main study animals at the scheduled necropsies. Tissues from Groups 1 and 5 animals at the terminal sacrifice, from animals found dead or moribund-sacrificed, and gross lesions from all animals, were embedded in paraffin, sectioned, stained with hematoxylin and eosin and examined microscopically by a board certified veterinary pathologist.

[3] = Phase 1 single dose study, plasma pharmacokinetics in healthy adult males; type: in vivo, human; details: for AUC(0-t) / AUC(0-inf) / Tmax / Vd/F / half-life / Cmax: male, human, plasma, po; for Vd/F: read-out: Vz/F
Description: The dose groups included Cohort 1 (15 mg or placebo, fasted, oral suspension), Cohort 2 (50 mg or placebo, fasted, suspension), Cohort 3 (100 mg or placebo, fasted, oral suspension), Cohort 4 (150 mg or placebo, fasted, oral suspension), Cohort 6 (50 mg or placebo, fed, oral suspension), and Cohort 7 (50 mg or placebo, fasted, oral capsule). […] An additional 8 subjects received placebo.
The results are consistent with observation in animal testing and higher exposure of S-enantiomer was attributed to the conversion of the R-enantiomer in vivo.

[4] = Phase 2a study, safety and tolerability in gout patients; type: in vivo, human; details: 50 mg once daily
Source text: Urine samples were collected for assessment of uric acid excretion. Laboratory safety tests, vital signs, and electrocardiograms were collected throughout the study.

[5] = female rats, 5 mg/kg single oral, urine 0-6 h post dose
[6] = female rats, 5 mg/kg single oral, urine 6-24 h post dose
[7] = female rats, 15 mg/kg single oral, urine 0-6 h post dose
[8] = female rats, 15 mg/kg single oral, urine 6-24 h post dose
[9] = female rats, 50 mg/kg single oral, urine 0-6 h post dose
[10] = female rats, 50 mg/kg single oral, urine 6-24 h post dose
[11] = male rats, 10 mg/kg single oral, urine 0-6 h post dose
[12] = male rats, 10 mg/kg single oral, urine 6-24 h post dose
[13] = male rats, 30 mg/kg single oral, urine 0-6 h post dose
[14] = male rats, 30 mg/kg single oral, urine 6-24 h post dose
[15] = male rats, 100 mg/kg single oral, urine 0-6 h post dose
[16] = male rats, 100 mg/kg single oral, urine 6-24 h post dose
[17] = rats, oral gavage 2, 5, 15 and 50 mg/kg/day, 28 days
[18] = 15 mg single oral, fasted, suspension (C1)
[19] = 50 mg single oral, fasted, IR capsule (C7)
[20] = 50 mg single oral, fasted, suspension (C2)
[21] = 50 mg single oral, fed vs fasted
[22] = 50 mg single oral, fed, suspension (C6)
[23] = 100 mg single oral, fasted, suspension (C3)
[24] = 150 mg single oral, fasted, suspension (C4)
[25] = dose proportionality, 15 to 150 mg fasted

## [2H]c1c([2H])c([2H])c2c(C(=O)c3cc(Br)c(O)c(Br)c3)c(C(C)O)oc2c1[2H] (racemic) [Compound 1, (3,5-dibromo-4-hydroxyphenyl)(2-(1-hydroxyethyl)benzofuran-3-yl-4,5,6,7-d4)methanone]
[1]; [5]
  % UACR change vs Ctrl: 140%
  % UACR change vs baseline: 73%
  UACR: 102.7 mg/g
  UALB: 33.71 mg/L
  UCRE: 0.328 g/L
[1]; [6]
  % UACR change vs Ctrl: 19%
  % UACR change vs baseline: 44%
  UACR: 40.3 mg/g
  UALB: 24.2 mg/L
  UCRE: 0.600 g/L
[1]; [7]
  % UACR change vs Ctrl: −53%
  % UACR change vs baseline: −6%
  UACR: 17.5 mg/g
  UALB: 5.22 mg/L
  UCRE: 0.298 g/L
[1]; [8]
  % UACR change vs Ctrl: −41%
  % UACR change vs baseline: 9%
  UACR: 20.1 mg/g
  UALB: 11.93 mg/L
  UCRE: 0.593 g/L
[1]; [9]
  % UACR change vs Ctrl: −38%
  % UACR change vs baseline: −23%
  UACR: 23.4 mg/g
  UALB: 9.58 mg/L
  UCRE: 0.409 g/L
[1]; [10]
  % UACR change vs Ctrl: −21%
  % UACR change vs baseline: −7%
  UACR: 26.8 mg/g
  UALB: 21.15 mg/L
  UCRE: 0.790 g/L
[1]; [11]
  % UACR change vs Ctrl: −62%
  % UACR change vs baseline: −62%
  UACR: 14.2 mg/g
  UALB: 6.22 mg/L
  UCRE: 0.438 g/L
[1]; [12]
  % UACR change vs Ctrl: −32%
  % UACR change vs baseline: 23%
  UACR: 28.3 mg/g
  UALB: 14.79 mg/L
  UCRE: 0.523 g/L
[1]; [13]
  % UACR change vs Ctrl: −59%
  % UACR change vs baseline: −46%
  UACR: 15.5 mg/g
  UALB: 8.73 mg/L
  UCRE: 0.563 g/L
[1]; [14]
  % UACR change vs Ctrl: −28%
  % UACR change vs baseline: 31%
  UACR: 29.6 mg/g
  UALB: 12.38 mg/L
  UCRE: 0.418 g/L
[1]; [15]
  % UACR change vs Ctrl: −63%
  % UACR change vs baseline: −38%
  UACR: 13.9 mg/g
  UALB: 9.25 mg/L
  UCRE: 0.666 g/L
[1]; [16]
  % UACR change vs Ctrl: −32%
  % UACR change vs baseline: 46%
  UACR: 28.0 mg/g
  UALB: 15.18 mg/L
  UCRE: 0.542 g/L
[2]; Sprague-Dawley, rat, in vivo, po
  NOAEL at 28 days: 50 mg/kg
[2]; rat, in vivo
  NOAEL, human equivalent: 500 mg
[2]; rats, 28 days oral
  dose with kidney weight increase, female: 50 mg/kg/day
  dose with liver weight increase, female: ≥ 15 mg/kg/day
  dose with liver weight increase, male: 50 mg/kg/day
[2]; rats, 28 days oral then 4 week recovery
  findings at high or mid-high dose after 4 week recovery period: resolved
[2]; [17]
  clinical signs: No abnormal clinical signs
  effect on food consumption, body weight: no effect
  mortality: No mortality
[3]; [18]
  CL/F: 1.02 L/h
  Cmax (total): 1060 ng/mL
[3]; [19]
  CL/F: 1.01 L/h
  Cmax (total): 3970 ng/mL
[3]; [20]
  CL/F: 0.906 L/h
  Cmax (total): 3330 ng/mL
[3]; [21]
  change of Cmax in the fed state: ~33%
  decrease of AUC with food: approximately 13%
[3]; [22]
  CL/F: 1.03 L/h
  Cmax (total): 2210 ng/mL
  Tmax (median): 8 h and 8.00 h
[3]; [23]
  CL/F: 1.04 L/h
  Cmax (total): 5510 ng/mL
[3]; [24]
  CL/F: 0.944 L/h
  Cmax (total): 8330 ng/mL
[3]; [25]
  Power model intercept, AUCinf (μg · h/mL): 0.944
  Power model intercept, Cmax (μg/mL): 0.0966
[3]; 15 mg, 15 mg single oral, fasted, suspension (C1), read-out: AUC0-24 (total)
  AUC(0-t): 12100 ng·h/mL
[3]; 15 mg, 15 mg single oral, fasted, suspension (C1), read-out: AUCinf (total)
  AUC(0-inf): 15000 ng·h/mL
[3]; 15 mg, 15 mg single oral, fasted, suspension (C1), read-out: Tmax (median)
  Tmax: 3.5 h
[3]; 15 mg, 15 mg single oral, fasted, suspension (C1)
  Vd/F: 14.1 L
[3]; 15 mg, 15 mg single oral, fasted, suspension (C1), read-out: t1/2 (converted)
  half-life: 9.69 h
[3]; 50 mg, 50 mg single oral, fasted, IR capsule (C7), read-out: AUC0-24 (total)
  AUC(0-t): 41900 ng·h/mL
[3]; 50 mg, 50 mg single oral, fasted, IR capsule (C7), read-out: AUCinf (total)
  AUC(0-inf): 51300 ng·h/mL
[3]; 50 mg, 50 mg single oral, fasted, IR capsule (C7), read-out: Tmax (median)
  Tmax: 1.75 h
[3]; 50 mg, 50 mg single oral, fasted, IR capsule (C7)
  Vd/F: 14.9 L
[3]; 50 mg, 50 mg single oral, fasted, IR capsule (C7), read-out: t1/2 (converted)
  half-life: 10.5 h
[3]; 50 mg, 50 mg single oral, fasted, suspension (C2), read-out: AUC0-24 (total)
  AUC(0-t): 42600 ng·h/mL
[3]; 50 mg, 50 mg single oral, fasted, suspension (C2), read-out: AUCinf (total)
  AUC(0-inf): 59600 ng·h/mL
[3]; 50 mg, 50 mg single oral, fasted, suspension (C2), read-out: Tmax (median)
  Tmax: 3 h
[3]; 50 mg, 50 mg single oral, fasted, suspension (C2)
  Vd/F: 16 L
[3]; 50 mg, 50 mg single oral, fasted, suspension (C2), read-out: t1/2 (converted)
  half-life: 12.5 h
[3]; 50 mg, 50 mg single oral, fasted, read-out: Geometric Least Squares Mean AUCinf, Fasted
  AUC(0-inf): 57400 ng·h/mL
[3]; 50 mg, 50 mg single oral, fasted, read-out: Geometric Least Squares Mean AUClast, Fasted
  AUC(0-t): 57100 ng·h/mL
[3]; 50 mg, 50 mg single oral, fasted, read-out: Geometric Least Squares Mean Cmax, Fasted
  Cmax: 3250 ng/mL
[3]; 50 mg, 50 mg single oral, fed (high-fat, high-calorie meal), read-out: Geometric Least Squares Mean Cmax, Fed
  Cmax: 2170 ng/mL
[3]; 50 mg, 50 mg single oral, fed, suspension (C6), read-out: AUC0-24 (total)
  AUC(0-t): 34000 ng·h/mL
[3]; 50 mg, 50 mg single oral, fed, suspension (C6), read-out: AUCinf (total)
  AUC(0-inf): 51200 ng·h/mL
[3]; 50 mg, 50 mg single oral, fed, suspension (C6), read-out: Tmax (median)
  Tmax: 8 h
[3]; 50 mg, 50 mg single oral, fed, suspension (C6)
  Vd/F: 16.3 L
[3]; 50 mg, 50 mg single oral, fed, suspension (C6), read-out: t1/2 (converted)
  half-life: 11.7 h
[3]; 50 mg, 50 mg single oral, fed, read-out: Geometric Least Squares Mean AUCinf, Fed
  AUC(0-inf): 49900 ng·h/mL
[3]; 50 mg, 50 mg single oral, fed, read-out: Geometric Least Squares Mean AUClast, Fed
  AUC(0-t): 49600 ng·h/mL
[3]; 100 mg, 100 mg single oral, fasted, suspension (C3), read-out: AUC0-24 (total)
  AUC(0-t): 71000 ng·h/mL
[3]; 100 mg, 100 mg single oral, fasted, suspension (C3), read-out: AUCinf (total)
  AUC(0-inf): 99700 ng·h/mL
[3]; 100 mg, 100 mg single oral, fasted, suspension (C3), read-out: Tmax (median)
  Tmax: 4 h
[3]; 100 mg, 100 mg single oral, fasted, suspension (C3)
  Vd/F: 18.6 L
[3]; 100 mg, 100 mg single oral, fasted, suspension (C3), read-out: t1/2 (converted)
  half-life: 12.5 h
[3]; 150 mg, 150 mg single oral, fasted, suspension (C4), read-out: AUC0-24 (total)
  AUC(0-t): 114000 ng·h/mL
[3]; 150 mg, 150 mg single oral, fasted, suspension (C4), read-out: AUCinf (total)
  AUC(0-inf): 173000 ng·h/mL
[3]; 150 mg, 150 mg single oral, fasted, suspension (C4), read-out: Tmax (median)
  Tmax: 4 h
[3]; 150 mg, 150 mg single oral, fasted, suspension (C4)
  Vd/F: 15.5 L
[3]; 150 mg, 150 mg single oral, fasted, suspension (C4), read-out: t1/2 (converted)
  half-life: 12 h
[3]; single oral dose, fasted conditions, read-out: median Tmax, range over doses
  Tmax: 3 to 5 h
[3]; single oral doses 15 to 150 mg, read-out: average terminal half-life
  half-life: 10 to 13 h
[3]; single oral doses 15 to 150 mg
  total plasma clearance: approximately 1.0 L/hr
  volume of distribution: 14 to 18 L
[4]
  laboratory or ECG abnormalities: no clinically significant laboratory or ECG abnormalities
  tolerability: well tolerated
